IC50 data for 20 compounds are collected here from patent publication US12668600B2 (Kumquat Biosciences Inc., priority 2023, dated 2026).

The term IC50 denotes the concentration that gives 50% inhibition.

What all share (type): biochemical
The target in one assay is T1, KRAS WT (Homo sapiens, UniProt P01116).
T1 construct: made in house; host or cells: E. coli, e.g. BL21 (DE3)
Kind of assay: HTRF KRAS-SOS1 interaction assay, wildtype KRAS. Conditions: binned ≤2 μM / >2 μM, read-out: Inhibition of KRAS WT (IC50). An excerpt: (§1) This assay can be also used to assess a selective inhibition or reduction of signaling output of a mutant Ras protein relative to a wildtype, or relative to a different mutant Ras protein. For example, the equilibrium interaction of wildtype KRAS or K-Ras mutant (e.g., wildtype or a mutant thereof) with SOS1 (e.g., hSOS1) can be assessed as a proxy or an indication for the ability of a subject compound to bind and inhibit Ras protein. The HTRF assay detects from (i) a fluorescence resonance energy transfer (FRET) donor (e.g., antiGST-Europium) that is bound to GST-tagged K-Ras mutant to (ii) a FRET acceptor (e.g., anti-6His-XL665) bound to a His-tagged hSOS1.
(§2) The assay buffer can contain ˜5 mM HEPES pH 7.4, ˜150 mM NaCl, ˜1 mM DTT, 0.05% BSA and 0.0025% (v/v) Igepal. A Ras working solution is prepared in an assay buffer containing typically a suitable amount of the protein construct (e.g., GST-tagged K-Ras mutant) and the FRET donor (e.g., antiGST-Eu (K) from Cisbio, France). A SOS1 working solution is prepared in an assay buffer containing suitable amount of the protein construct (e.g., His-hSOS1) and the FRET acceptor (e.g., anti-6His-XL665 from Cisbio, France). A suitable amount of the protein construct will depend on the range of activity or range of IC50 values being detected or under investigation. For detecting an IC50 within a range of 500 nM, the protein constructs of the same range of molarity can be utilized.
(§3) A fixed volume of DMSO with or without test compound is transferred into a 384-well plate. Ras working solution is added to all wells of the test plate. SOS1 working solution is added to all wells except for those that are subsequently filled with inhibitor control solution. Upon incubation for about 10 minutes or longer, the fluorescence is measured with a M1000Pro plate reader (Tecan) using HTRF detection (excitation 337 nm, emission 1:620 nm, emission 2:665 nm). Compounds are tested in duplicate at different concentrations (for example, 10 μM, 2.5 μM, 0.63 μM, 0.16 μM, 0.04 μM, 0.01 μM test compound). The ratiometric data (i.e., emission 2 divided by emission 1) is used to calculate IC50 values against Ras using GraphPad Prism (GraphPad software). Signaling output measured in terms of IC50 values can be obtained and a ratio of IC50 against one mutant relative to another mutant can be calculated.

For a further assay, the target named is T2, KRAS G12V (Homo sapiens, UniProt P01116, G12V).
T2 construct: made in house; host or cells: E. coli, e.g. BL21 (DE3)
Put plainly: HTRF KRAS-SOS1 interaction assay, KRAS G12V. Conditions: binned ≤2 μM / >2 μM, read-out: Inhibition of KRAS G12V (IC50).
Description: as §1, §2, §3

A further assay has as its target T3, KRAS G12S (Homo sapiens, UniProt P01116, G12S).
T3 construct: made in house; host or cells: E. coli, e.g. BL21 (DE3)
Put plainly: HTRF KRAS-SOS1 interaction assay, KRAS G12S. Conditions: binned ≤2 μM / >2 μM, read-out: Inhibition of KRAS G12S (IC50).
Description: as §1, §2, §3
For orientation: In TR-FRET formats the signal depends on donor and acceptor labels being close together.

A further assay concerns the target T4, KRAS G12D (Homo sapiens, UniProt P01116, G12D).
T4 construct: made in house; host or cells: E. coli, e.g. BL21 (DE3)
Put plainly: HTRF KRAS-SOS1 interaction assay, KRAS G12D. Conditions: binned ≤2 μM / >2 μM, read-out: Inhibition of KRAS G12D (IC50).
Description: as §1, §2, §3

A value given as a limit tells only on which side of the number the result lay.

T2 sequence (P01116 1-188 isoform P01116-2 G12V): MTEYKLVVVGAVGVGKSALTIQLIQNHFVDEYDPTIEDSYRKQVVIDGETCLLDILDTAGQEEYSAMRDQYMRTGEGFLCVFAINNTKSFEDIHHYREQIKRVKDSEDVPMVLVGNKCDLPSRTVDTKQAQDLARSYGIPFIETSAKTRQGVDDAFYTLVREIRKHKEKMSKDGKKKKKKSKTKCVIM
T1 sequence (P01116 1-188 isoform P01116-2): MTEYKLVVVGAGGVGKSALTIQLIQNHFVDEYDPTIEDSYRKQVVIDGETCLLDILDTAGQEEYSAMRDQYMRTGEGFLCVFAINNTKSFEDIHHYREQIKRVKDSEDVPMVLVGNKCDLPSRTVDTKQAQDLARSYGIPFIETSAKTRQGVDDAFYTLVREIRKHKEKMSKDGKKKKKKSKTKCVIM
T3 sequence (P01116 1-188 isoform P01116-2 G12S): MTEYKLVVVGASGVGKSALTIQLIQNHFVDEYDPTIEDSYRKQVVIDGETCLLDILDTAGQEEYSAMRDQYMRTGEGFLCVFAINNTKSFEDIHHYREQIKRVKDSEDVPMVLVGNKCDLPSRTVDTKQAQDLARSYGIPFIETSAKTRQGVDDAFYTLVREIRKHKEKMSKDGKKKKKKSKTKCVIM
T4 sequence (P01116 1-188 isoform P01116-2 G12D): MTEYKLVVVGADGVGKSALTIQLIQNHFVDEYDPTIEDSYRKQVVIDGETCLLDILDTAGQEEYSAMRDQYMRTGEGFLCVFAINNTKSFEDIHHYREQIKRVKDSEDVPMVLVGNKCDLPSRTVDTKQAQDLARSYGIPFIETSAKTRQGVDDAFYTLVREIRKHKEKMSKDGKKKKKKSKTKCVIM

Take `CC(c1cccnc1N)N1c2nc(OC[C@@]34CCCN3C[C@H](F)C4)nc3c(F)c(-c4ccc(F)c5sc(N)c(C#N)c45)c(Cl)c(c23)OC[C@@H]1CC#N` (mixture of isomers) [Compound 615, 2-amino-4-((5S)-4-(1-(2-aminopyridin-3-yl)ethyl)-8-chloro-5-(cyanomethyl)-10-fluoro-2-(((2R,7aS)-2-fluorotetrahydro-1H-pyrrolizin-7a (5H)-yl)methoxy)-5,6-dihydro-4H-[1,4]oxazepino[5,6,7-de]quinazolin-9-yl)-7-fluorobenzo[b]thiophene-3-carbonitrile]: the IC50 on KRAS WT, on KRAS G12V and on KRAS G12S was at most 2 µM each time.
As to `CCC(c1cccnc1N)N1CCOc2c(Cl)c(-c3ccc(F)c4sc(N)c(C#N)c34)c(F)c3nc(OC[C@@]45CCCN4C[C@H](F)C5)nc1c23` (mixture of isomers) [Compound 643, 2-amino-4-(4-(1-(2-aminopyridin-3-yl)propyl)-8-chloro-10-fluoro-2-(((2R,7aS)-2-fluorotetrahydro-1H-pyrrolizin-7a(5H)-yl)methoxy)-5,6-dihydro-4H-[1,4]oxazepino[5,6,7-de]quinazolin-9-yl)-7-fluorobenzo[b]thiophene-3-carbonitrile], the IC50 on KRAS WT, at KRAS G12V and on KRAS G12S was at most 2 µM each time.
`N#Cc1c(N)sc2c(F)ccc(-c3c(Cl)c4c5c(nc(OC[C@@]67CCCN6C[C@H](F)C7)nc5c3F)N(C(CC(F)F)c3cccnc3N)CCO4)c12` (mixture of isomers) [Compound 681, 2-amino-4-(4-(1-(2-aminopyridin-3-yl)-3,3-difluoropropyl)-8-chloro-10-fluoro-2-(((2R,7aS)-2-fluorotetrahydro-1H-pyrrolizin-7a(5H)-yl)methoxy)-5,6-dihydro-4H-[1,4]oxazepino[5,6,7-de]quinazolin-9-yl)-7-fluorobenzo[b]thiophene-3-carbonitrile]: the IC50 at KRAS WT, at KRAS G12V and at KRAS G12S was at most 2 µM throughout.
`C=Cc1c(-c2ccc(F)c3sc(N)c(C#N)c23)c(F)c2nc(OC[C@@]34CCCN3C[C@H](F)C4)nc3c2c1OCCN3[C@H](C)c1cccnc1N` (single isomer, unassigned) [Compound 603]: the IC50 on KRAS WT, on KRAS G12V and on KRAS G12S was at most 2 µM in each case.
On to `CO/N=C1\CN2CCC[C@@]2(COc2nc3c4c(c(Cl)c(-c5ccc(F)c6sc(N)c(C#N)c56)c(F)c4n2)OCCN3[C@H](C)c2cccnc2N)C1` (single isomer, unassigned) [Compound 607], for which the half-inhibitory concentration (IC50) at KRAS WT, on KRAS G12V and at KRAS G12S was at most 2 µM each time.
As for `N#Cc1c(N)sc2c(F)ccc(-c3c(C(F)(F)F)c4c5c(nc(OC[C@@]67CCCN6C[C@H](F)C7)nc5c3F)N([C@H](CCC3CCOCC3)c3cccnc3N)CCO4)c12` (single isomer, unassigned) [Compound 611], the IC50 on KRAS WT, on KRAS G12V and on KRAS G12S was at most 2 µM throughout.
As for `C=CC[C@H](c1cccnc1N)N1CCOc2c(C(F)(F)F)c(-c3ccc(F)c4sc(N)c(C#N)c34)c(F)c3nc(OC[C@@]45CCCN4C[C@H](F)C5)nc1c23` (single isomer, unassigned) [Compound 616], the IC50 at KRAS WT, on KRAS G12V and on KRAS G12S was at most 2 µM throughout.
With `N#Cc1c(N)sc2c(F)ccc(-c3c(Cl)c4c5c(nc(OC[C@@]67CCCN6C[C@H](F)C7)nc5c3F)N(C(c3cccnc3N)C(F)F)CCO4)c12` (single isomer, unassigned) [Compound 618], the half-inhibitory concentration (IC50) at KRAS WT, on KRAS G12V and on KRAS G12S was at most 2 µM each time.
In the case of `N#Cc1c(N)sc2c(F)ccc(-c3c(C(F)(F)F)c4c5c(nc(OC[C@@]67CCCN6C[C@H](F)C7)nc5c3F)N([C@H](CCC3COCCO3)c3cccnc3N)CCO4)c12` (single isomer, unassigned) [Compound 624], the IC50 on KRAS WT, on KRAS G12V and on KRAS G12S was at most 2 µM throughout.
For `N#Cc1c(N)sc2c(F)ccc(-c3c(C(F)(F)F)c4c5c(nc(OC[C@@]67CCCN6C[C@H](F)C7)nc5c3F)N([C@@H](c3cccnc3N)C(F)F)CCO4)c12` (single isomer, unassigned) [Compound 625], the half-maximal inhibitory concentration (IC50) at KRAS WT, at KRAS G12V and on KRAS G12S was at most 2 µM in each case.
`CCO/N=C1\CN2CCC[C@@]2(COc2nc3c4c(c(Cl)c(-c5ccc(F)c6sc(N)c(C#N)c56)c(F)c4n2)OCCN3[C@H](C)c2cccnc2N)C1` (single isomer, unassigned) [Compound 627]: the IC50 at KRAS WT, on KRAS G12V and at KRAS G12S was at most 2 µM throughout.
For the compound `C[C@H](c1ccc(F)nc1N)N1CCOc2c(C(F)(F)F)c(-c3ccc(F)c4sc(N)c(C#N)c34)c(F)c3nc(OC[C@@]45CCCN4C[C@H](F)C5)nc1c23` (single isomer, unassigned) [Compound 628], the IC50 on KRAS WT, at KRAS G12V and on KRAS G12S was at most 2 µM throughout.
As to `CS(=O)(=O)CCC[C@H](c1cccnc1N)N1CCOc2c(C(F)(F)F)c(-c3ccc(F)c4sc(N)c(C#N)c34)c(F)c3nc(OC[C@@]45CCCN4C[C@H](F)C5)nc1c23` (single isomer, unassigned) [Compound 629], the IC50 on KRAS WT, on KRAS G12V and at KRAS G12S was at most 2 µM throughout.
For the compound `N#Cc1c(N)sc2c(F)ccc(-c3c(Cl)c4c5c(nc(OC[C@@]67CCCN6C[C@H](F)C7)nc5c3F)N(C(/C=C\C(F)(F)F)c3cccnc3N)CCO4)c12` (single isomer, unassigned) [Compound 632], the IC50 on KRAS WT, on KRAS G12V and at KRAS G12S was at most 2 µM each time.
As for `C[C@H](c1cccnc1N)N1CCOc2c(C(F)(F)F)c(-c3ccc(F)c4sc(N)c(C#N)c34)c(F)c3nc(OC[C@@]45CCCN4C[C@H](F)C5)nc1c23` (single isomer, unassigned) [Compound 768], on KRAS G12S, the IC50 was at most 2 µM.
`CCO/N=C(\C)CCC[C@H](c1cccnc1N)N1CCOc2c(C(F)(F)F)c(-c3ccc(F)c4sc(N)c(C#N)c34)c(F)c3nc(OC[C@@]45CCCN4C[C@H](F)C5)nc1c23` (single isomer, unassigned) [Compound 859]: the IC50 at KRAS G12D, at KRAS WT and at KRAS G12V was above 2 µM throughout.
Take `Cc1cnc(N)c([C@@H](C)N2CCOc3c(C(F)(F)F)c(-c4ccc(F)c5sc(N)c(C#N)c45)c(F)c4nc(OC[C@@]56CCCN5C[C@H](F)C6)nc2c34)c1` (single isomer, unassigned) [Compound 861]: the IC50 at KRAS G12D, at KRAS WT and on KRAS G12S was above 2 µM throughout.
In the case of `C[C@H](c1cccnc1N)N1CCOc2c(C(F)(F)F)c(-c3cc(F)c(F)c4sc(N)c(C#N)c34)c(F)c3nc(OC[C@@]45CCCN4C[C@H](F)C5)nc1c23` (single isomer, unassigned) [Compound 863], the IC50 on KRAS G12D, at KRAS WT and at KRAS G12S was above 2 µM in each case.
Consider `N#Cc1c(N)sc2c(F)ccc(-c3c(C(F)(F)F)c4c5c(nc(OC[C@@]67CCCN6[C@H](COc6cnc(C(F)(F)F)cn6)CC7)nc5c3F)N([C@@H](c3cccnc3N)C(F)F)CCO4)c12` (single isomer, unassigned) [Compound 882], for which the IC50 on KRAS G12D, on KRAS G12V and on KRAS G12S was at most 2 µM throughout.
For `N#Cc1c(N)sc2c(F)ccc(-c3c(C(F)(F)F)c4c5c(nc(OC[C@@]67CCCN6C[C@H](F)C7)nc5c3F)N([C@H](CC3CCOC3)c3cccnc3N)CCO4)c12` (single isomer, unassigned) [Compound 911], the IC50 on KRAS G12D, at KRAS WT and at KRAS G12V was at most 2 µM each time.
